Experimental data published in patent US12459951B2, “Compounds that interact with RAS superfamily proteins for treatment of cancers, inflammatory diseases, rasopathies, and fibrotic disease” (SHY Therapeutics, LLC, priority 2022, dated 2025).

Assays:
[1] = tested on: Erk1/2 phosphorylation; test: Erk1/2 Phosphorylation Assay (western blot), Panc-1; assay type: cell-based, human; conditions: at 10 μM, * = activation
In short: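 KRas G12D Panc-1 cells were treated 6 h at 37° C with compound at 10 μM or serial dilutions for IC50 (0.3% DMSO). In method 1, cells were serum-starved overnight (0.5% FBS) and then given 1.5 ng/ml EGF for 15 min. In method 2, cells stayed in 10% FBS without stimulation. Lysate phospho-Erk1/2 (Thr202/Tyr204) was read by western blot.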

[2] = target: T1, Rac-1 (Homo sapiens, UniProt P63000); test: Ras GTP Binding Domain Inhibition Assay (Ras Superfamily Assay); conditions: read-out: Rac-1: % inh.
T1 construct: made in house
In short: (§1)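 His-tagged GTPases immobilised on nickel-coated plates, pre-incubated with compound (20 μM single point, or serial dilution for IC50) 3 h at room temperature, with or without 10-30 μg/mL Sos (residues 556-1049) in the final hour. Bound Cy3- or Cy5-GTP (100 nM, 45 min) measured by fluorescence after washing.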

[3] = tested on: KRas G12D mutant; test: as above; conditions: for KRas G12D mutant + SOS: % inh.: with SOS; for KRas G12D mutant: % inh.: without SOS
In short: as §1

[4] = tested on: KRas G12C mutant; test: as above; conditions: 20 μM compound; for KRas G12C mutant + SOS: % inh.: with SOS; for KRas G12C mutant: % inh.: without SOS
In short: as §1

[5] = tested on: KRas Q61H mutant; test: as above; conditions: 20 μM compound; for KRas Q61H mutant + SOS: % inh.: with SOS; for KRas Q61H mutant: % inh.: without SOS
In short: as §1

[6] = tested on: KRas wild type; test: as above; conditions: for KRas wild type + SOS: % inh.: with SOS; for KRas wild type: % inh.: without SOS
In short: as §1

[7] = target: T2, Rho-A (Homo sapiens, UniProt P61586); test: as above; conditions: read-out: Rho-A: % inh..
T2 construct: made in house
In short: as §1

T2 sequence (P61586 whole entry): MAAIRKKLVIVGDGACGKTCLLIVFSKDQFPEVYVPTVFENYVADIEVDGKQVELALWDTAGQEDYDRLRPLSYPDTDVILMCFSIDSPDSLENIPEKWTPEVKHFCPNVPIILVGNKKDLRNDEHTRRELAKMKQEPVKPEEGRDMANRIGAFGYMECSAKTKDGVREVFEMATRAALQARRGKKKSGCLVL

| SMILES | % inh of Erk1/2 phosphorylation in Panc-1 [1] | inhibition at 20 µM [2] [%] | KRas G12D mutant + SOS: % inh. ([3]; 20 μM compound) | KRas G12D mutant: % inh. ([3]; 20 μM compound) | KRas G12C mutant + SOS: % inh. [4] | KRas G12C mutant: % inh. [4] | KRas Q61H mutant + SOS: % inh. [5] | KRas Q61H mutant: % inh. [5] | KRas wild type + SOS: % inh. ([6]; 20 μM compound) | KRas wild type: % inh. ([6]; 20 μM compound) | inhibition at 20 µM [7] [%] | KRas G12D mutant + SOS: % inh. ([3]; at 20 μM) | KRas G12D mutant: % inh. ([3]; at 20 μM) | KRas wild type + SOS: % inh. ([6]; at 20 μM) | KRas wild type: % inh. ([6]; at 20 μM) |
| --- | --- | --- | --- | --- | --- | --- | --- | --- | --- | --- | --- | --- | --- | --- | --- |
| CCn1ccc(-c2cn3nc(-c4nccn4C)nc(Nc4cc(OC)ncn4)c3c2C)n1 [Compound 64, 6-(1-Ethyl-1H-pyrazol-3-yl)-N-(6-methoxypyrimidin-4-yl)-5-methyl-2-(1-methyl-1H-imidazol-2-yl)pyrrolo[2,1-f][1,2,4]triazin-4-amine] | A (1-25% inhibition) | 76 to 100 | D (D = 76-100% inhibition) | D (D = 76-100% inhibition) | C (C = 50-75% inhibition) | D (D = 76-100% inhibition) | D (D = 76-100% inhibition) | D (D = 76-100% inhibition) | D (D = 76-100% inhibition) | D (D = 76-100% inhibition) | 76 to 100 |  |  |  |  |
| Cc1c(-c2ccn(C(C)C)n2)cn2nc(-c3nccn3C)nc(Nc3ccccn3)c12 [Compound 57, 6-(1-Isopropyl-1H-pyrazol-3-yl)-5-methyl-2-(1-methyl-1H-imidazol-2-yl)-N-(pyridin-2-yl)pyrrolo[2,1-f][1,2,4]triazin-4-amine] | A* (1-25% activation) | 76 to 100 | D (D = 76-100% inhibition) | D (D = 76-100% inhibition) | D (D = 76-100% inhibition) | D (D = 76-100% inhibition) | D (D = 76-100% inhibition) | D (D = 76-100% inhibition) | D (D = 76-100% inhibition) | D (D = 76-100% inhibition) | 76 to 100 |  |  |  |  |
| COCC1CCN(c2nc(-c3ccccn3)nn3cc(-c4ccn(C(C)C)n4)c(-c4ccccc4)c23)C1 (racemic) [Compound 25, rac 6-(1-Isopropyl-1H-pyrazol-3-yl)-4-(3-(methoxymethyl)pyrrolidin-1-yl)-5-phenyl-2-(pyridin-2-yl)pyrrolo[2,1-f][1,2,4]triazine] | 0 (0% inhibition) | 1 to 25 | A (A = 1-25% inhibition) | A (A = 1-25% inhibition) | A (A = 1-25% inhibition) | A (A = 1-25% inhibition) | A (A = 1-25% inhibition) | A (A = 1-25% inhibition) | A (A = 1-25% inhibition) | A (A = 1-25% inhibition) | 1 to 25 |  |  |  |  |
| Cc1c(-c2ccn(C(C)C)n2)cn2nc(-c3nccn3C)nc(Nc3ccncc3)c12 [Compound 52, 6-(1-Isopropyl-1H-pyrazol-3-yl)-5-methyl-2-(1-methyl-1H-imidazol-2-yl)-N-(pyridin-4-yl)pyrrolo[2,1-f][1,2,4]triazin-4-amine] | 0 (0% inhibition) | 0 | A (A = 1-25% inhibition) | A (A = 1-25% inhibition) | A (A = 1-25% inhibition) | 0 (0 = 0% inhibition) |  |  | A (A = 1-25% inhibition) | 0 (0 = 0% inhibition) | 0 |  |  |  |  |
| COc1cc(Nc2nc(-c3nccn3C)nn3cc(-c4ccn(C(C)C)n4)c(C)c23)n[nH]1 [Compound 51, 6-(1-Isopropyl-1H-pyrazol-3-yl)-N-(5-methoxy-1H-pyrazol-3-yl)-5-methyl-2-(1-methyl-1H-imidazol-2-yl)pyrrolo[2,1-f][1,2,4]triazin-4-amine] | 0 (0% inhibition) | 76 to 100 | C (C = 50-75% inhibition) | D (D = 76-100% inhibition) | C (C = 50-75% inhibition) | C (C = 50-75% inhibition) |  |  | C (C = 50-75% inhibition) | D (D = 76-100% inhibition) | 76 to 100 |  |  |  |  |
| Cc1c(-c2ccn(C)n2)cn2nc(-c3nccn3C)nc(Nc3cc(OC(F)F)n(C)n3)c12 [Compound 254, N-(5-(Difluoromethoxy)-1-methyl-1H-pyrazol-3-yl)-5-methyl-2-(1-methyl-1H-imidazol-2-yl)-6-(1-methyl-1H-pyrazol-3-yl)pyrrolo[2,1-f][1,2,4]triazin-4-amine] | D* (85-100% activation) | 76 to 100 |  |  |  |  |  |  |  |  |  | D (D = 76-100% inhibition) | D (D = 76-100% inhibition) | D (D = 76-100% inhibition) | D (D = 76-100% inhibition) |
| Cc1c(-c2ccn(C)n2)cn2nc(-c3nccn3C)nc(Nc3cc(-c4ccncc4)[nH]n3)c12 [Compound 266, 5-Methyl-2-(1-methyl-1H-imidazol-2-yl)-6-(1-methyl-1H-pyrazol-3-yl)-N-(5-(pyridin-4-yl)-1H-pyrazol-3-yl)pyrrolo[2,1-f][1,2,4]triazin-4-amine] | D (85-100% inhibition) | 76 to 100 |  |  |  |  |  |  |  |  |  | D (D = 76-100% inhibition) | D (D = 76-100% inhibition) | C (C = 50-75% inhibition) | D (D = 76-100% inhibition) |
| COc1ccc(Nc2nc(-c3nccn3C)nn3cc(-c4ccn(C(C)C)n4)c(C)c23)nn1 [Compound 74, 6-(1-Isopropyl-1H-pyrazol-3-yl)-N-(6-methoxypyridazin-3-yl)-5-methyl-2-(1-methyl-1H-imidazol-2-yl)pyrrolo[2,1-f][1,2,4]triazin-4-amine] | D* (85-100% activation) | 1 to 25 |  |  |  |  |  |  |  |  | 26 to 49 |  |  |  |  |
| COc1cc(Nc2nc(-c3nccn3C)nn3cc(-c4ccn(C)n4)c(C)c23)nn1C [Compound 253, N-(5-Methoxy-1-methyl-1H-pyrazol-3-yl)-5-methyl-2-(1-methyl-1H-imidazol-2-yl)-6-(1-methyl-1H-pyrazol-3-yl)pyrrolo[2,1-f][1,2,4]triazin-4-amine] | C* (46-84% activation) | 76 to 100 |  |  |  |  |  |  |  |  |  | D (D = 76-100% inhibition) | C (C = 50-75% inhibition) | D (D = 76-100% inhibition) | D (D = 76-100% inhibition) |
